Assay results taken from ChEMBL document CHEMBL1208714, “Dimeric cyclohexane-1,3-dione oximes inhibit wheat acetyl-CoA carboxylase and show anti-malarial activity” (Bioorg Med Chem Lett, 2010).
Active and inactive are the calls of the source. The rule behind the calls is not given here.

Columns and labels:
Plasmodium falciparum = assay: Antimalarial activity against Plasmodium falciparum D10; format: functional, organism-based
[1] = system: acetyl-CoA carboxylase (Triticum aestivum); assay: Inhibition of wheat ACC at 20 uM
[2] = Inhibition of maize ACC; design: species or system Zea mays

| Structure (SMILES) | IC50 (Plasmodium falciparum) | inhibition [1] | IC50 [2] |
| --- | --- | --- | --- |
| CCO/N=C(\CC)C1=C(O)CC(c2c(C)cc(C)c(C(C)=O)c2C)CC1=O (stereo not drawn) | > 10 µM | – | – |
| CCCC(=O)c1c(C)cc(C)c(C2CC(=O)C(/C(CC)=N/OCC)=C(O)C2)c1C (stereo not drawn) [BUTROXYDIM] | 10 µM | Active | 0.3 µM |
| CCSC(C)CC1CC(=O)C(/C(CC)=N/OC/C=C/Cl)=C(O)C1 (stereo not drawn) [CLETHODIM] | > 250 µM | – | 0.02 µM |
| CCOC(=O)C(C)Oc1ccc(Oc2cnc3cc(Cl)ccc3n2)cc1 (stereo not drawn) [QUIZALOFOP ETHYL ESTER] | > 100 µM | – | > 1 µM |
| CC(Oc1ccc(Oc2cnc3cc(Cl)ccc3n2)cc1)C(=O)O (stereo not drawn) [QUIZALOFOP] | > 100 µM | – | 0.016 µM |
| CC/C(=N\OC/C=C/Cl)C1=C(O)CC(C2CCOCC2)CC1=O (stereo not drawn) [TEPRALOXYDIM] | > 100 µM | – | 0.7 µM |
| CCO/N=C(\CC)C1=C(O)CC(c2c(C)cc(C)cc2C)CC1=O (stereo not drawn) [TRALKOXYDIM] | > 100 µM | – | 0.52 µM |

More lines, main results first:

| IC50 (Plasmodium falciparum) | Structure (SMILES) | inhibition [1] | IC50 [2] |
| --- | --- | --- | --- |
| 6 µM | CCO/N=C(\CC)C1=C(O)CC(c2ccc(C3CC(=O)C(/C(CC)=N/OCC)=C(O)C3)cc2)CC1=O (stereo not drawn) | Active | – |
| 12 µM | CCO/N=C(\C)C1=C(O)CC(c2ccc(C3CC(=O)C(/C(C)=N/OCC)=C(O)C3)cc2)CC1=O (stereo not drawn) | – | – |
| 5 µM | CCC/C(=N\OCC)C1=C(O)CC(c2ccc(C3CC(=O)C(/C(CCC)=N/OCC)=C(O)C3)cc2)CC1=O (stereo not drawn) | – | – |
| 3 µM | CCO/N=C(\CC)C1=C(O)CC(c2cccc(C3CC(=O)C(/C(CC)=N/OCC)=C(O)C3)c2)CC1=O (stereo not drawn) | – | – |
| 2.5 µM | C=CCO/N=C(\CCC)C1=C(O)CC(c2cccc(C3CC(=O)C(/C(CCC)=N/OCC=C)=C(O)C3)c2)CC1=O (stereo not drawn) | – | – |
| 12.5 µM | CCC/C(=N\OCc1ccccc1)C1=C(O)CC(c2cccc(C3CC(=O)C(/C(CCC)=N/OCc4ccccc4)=C(O)C3)c2)CC1=O (stereo not drawn) | – | – |
| 25 µM | CCC/C(=N\OC(c1ccccc1)c1ccccc1)C1=C(O)CC(c2cccc(C3CC(=O)C(/C(CCC)=N/OC(c4ccccc4)c4ccccc4)=C(O)C3)c2)CC1=O (stereo not drawn) | – | – |
| 4 µM | CCC/C(=N\OCC)C1=C(O)CC(c2cccc(C3CC(=O)C(/C(CCC)=N/OCC)=C(O)C3)c2)CC1=O (stereo not drawn) | – | – |
